Where two headings read alike, the source gives them in different places.
Tests used:
tubulin = assay: Competition for fluorescent bodipy-paclitaxel binding to tubulin; set-up: species or system bovine; details: 30 min pre-incubation; Tau 15 μM or unlabelled paclitaxel 20 μM; fluorescent paclitaxel 5 μM
Protocol: (§1) Tubulin polymerization assays. Bovine brain tubulin (2 mg/ml) polymerization assays were performed in 100-μl volumes at 37° C. using the Tubulin Polymerization Assay Kit (Cytoskeleton, Inc., Denver, Colo.) and following the manufacturer recommendations. Purified Tau protein was purchased from Cytoskeleton (ref #TA01). Fluorescent Bodipy-paclitaxel was purchased from Molecular probes (Bodipy 564/570, Molecular probes, Eugene, Oreg.). OD340 was measured every 30 seconds for 30-60 min. The plots show the change in turbidity after correcting the data for the baseline absorbance.
To examine if paclitaxel binding to tubulin is affected by Tau expression, the inventors used fluorescent bodipy-paclitaxel. When fluorescent paclitaxel binds to microtubules it results in enhanced fluorescence. The inventors used this characteristic to assess the competition between Tau and paclitaxel in vitro. Fluorescent paclitaxel (5 μM) was added to a tubulin solution after 30 minutes pre-incubation with Tau (15 μM) or regular (non-fluorescent) paclitaxel (20 μM), or reaction buffer alone and fluorescence was measured 30 minutes later. […] In the control wells, the addition of fluorescent paclitaxel induced polymerization and after 30 minutes, fluorescence emission was high.

[1] = test system: ZR75.1 breast cancer cells; assay: ATP cell viability assay (CellTiter-Glo) after siRNA transfection; assay type: cell-based, human; details: 48 h drug exposure; for IC50: Homo sapiens, ZR-75-1, 48 h, read-out: IC50 concentration of paclitaxel; for Effect of Tau down-regulation on sensitivity to the drug: ZR75.1 cells, Tau siRNA
Text: Small interfering RNA studies. Two siRNA oligonucleotides directed against microtubule associated protein Tau (genbank accession number NM_016835.1) were ordered from Qiagen. Breast cancer cell lines were screened for Tau protein expression by Western blot analysis using a monoclonal anti-Tau antibody (#13-1400: clone T14, Zymed, CA). ZR75.1 cells were selected for siRNA studies and were transfected with a control siRNA (directed against lamin) or 2 distinct anti-Tau siRNA (5′-[…]-3′ (SEQ ID NO:194) and 5′-[…]-3′) (SEQ ID NO:195) constructs. Five hundred nanograms of siRNA was transfected using 1.5 μl RNAiFect (Qiagen) onto 1-3×10^4 cells in 96-well plates or 5 μg of siRNA was transfected using 15 μl RNAiFect (Qiagen) onto 1.5-4×10^5 cells in 6-well plates following the manufactures instructions.
In vitro apoptosis and cell growth assays. Twenty-four hours after siRNA transfection, the medium was changed and cells were treated with various concentrations of paclitaxel and epirubicin. Proliferation rates were determined with CellTiter-Glo® Luminescent Cell Viability Assay, (Promega) after 48 hours of drug exposure according to the manufacturer's instructions. Chemosensitivity was determined from three separate experiments. Growth curves were generated with GraphPad Prism 4.01 (GraphPad Software, San Diego, Calif.). The effect of Tau expression on drug uptake was assayed using a fluorescent-conjugated paclitaxel (Oregon Green 488 paclitaxel, Molecular probes, Eugene, Oreg.) or spontaneously fluorescent epirubicin (Kimichi-Sarfaty et al., 2002; Harris et al., 2003). Forty-eight hours after siRNA transfection, 3×10^5 cells were trypsinized and resuspended in 1 ml of regular medium containing 1 μM of fluorescent paclitaxel or 16 μM of epirubicin and incubated at 37° C. for 20 to 80 min. The pellet was resuspended in 400 μl of phosphate-buffered saline before FACS analysis (Kimichi-Sarfaty et al., 2002) using CellQuest software (BD Biosciences, San Jose, Calif.). Data were recorded by the FACScan as arbitrary units. The amount of fluorescence per cell (arbitrary fluorescence units) was taken as the measure of drug uptake. […] Fluorescence paclitaxel uptake was also observed using an inverted fluorescent microscope.
Down regulation of Tau expression in breast cancer cells increases sensitivity to paclitaxel in vitro. […] The inventors assessed Tau protein expression in breast cancer cell lines with Western blot using an anti-Tau monoclonal antibody that recognizes Tau irrespectively of phosphorylation status. […] Twenty-four hours after siRNA transfection, cells were exposed to various concentrations of paclitaxel or epirubicin and cell viability was assessed after 48 h of drug exposure using an ATP cell viability assay. […]

Bovine brain tubulin = assay: Tubulin polymerization assay (OD340); assay type: biochemical; details: tubulin 20 μM, 37° C.; 20 μM paclitaxel or 15 μM Tau
Protocol: as §1
Microtubules are formed in vitro by non-covalent polymerization of tubulin dimers (Desai et al., 1997; Hong et al., 1998). Microtubule associated proteins, GTP and paclitaxel increase microtubule polymerization rates which can be measured by observing an increase in absorbance at 340 nm (Lu and Wood, 1993; Rao et al., 1999). The inventors hypothesized that Tau may reduce pharmacological tubulin polymerization induced by paclitaxel. The inventors performed a kinetic spectrophotometric tubulin polymerization assay in which Tau and paclitaxel were added together to the tubulin mixture. […] Next, tubulin was pre-incubated with Tau before adding paclitaxel which approximates a more physiological sequence of drug exposure. […]

ZR75.1 cells = assay: Fluorescent drug uptake by FACS in siRNA-transfected cells; assay type: cell-based, human; details: 16 μM epirubicin, versus lamin knocked-down cells
Protocol: In vitro apoptosis and cell growth assays. Twenty-four hours after siRNA transfection, the medium was changed and cells were treated with various concentrations of paclitaxel and epirubicin. Proliferation rates were determined with CellTiter-Glo® Luminescent Cell Viability Assay, (Promega) after 48 hours of drug exposure according to the manufacturer's instructions. Chemosensitivity was determined from three separate experiments. Growth curves were generated with GraphPad Prism 4.01 (GraphPad Software, San Diego, Calif.). […] Data were recorded by the FACScan as arbitrary units. The amount of fluorescence per cell (arbitrary fluorescence units) was taken as the measure of drug uptake. […] Fluorescence paclitaxel uptake was also observed using an inverted fluorescent microscope.
Tau protein reduces paclitaxel binding to tubulin and interferes with the paclitaxel induced stabilization in vitro. […] To estimate paclitaxel binding to tubulin in the presence or absence of Tau protein, the uptake of fluorescent paclitaxel in Tau siRNA-treated (Tau knock down) cells and lamin siRNA-treated control cells were measured. Forty-four hours after siRNA transfection, cells were exposed to 1 μM Oregon green-paclitaxel for 20 to 80 min and then analyzed by FACS. The amount of fluorescent paclitaxel in the cells can be assessed by plotting fluorescence intensity in the X-axis and cell count on the Y-axis. […]

SMILES | Competition with fluorescent paclitaxel for binding to microtubules (tubulin) | IC50 ([1]; ZR75.1 cells with Tau siRNA knock down) [nM] | IC50 ([1]; ZR75.1 control cells (lamin siRNA or no siRNA)) [nM] | Effect of Tau down-regulation on sensitivity to the drug [1] | Tubulin polymerization (Bovine brain tubulin) | Fluorescence uptake in Tau knocked-down cells (ZR75.1 cells)
CC(=O)O[C@H]1C(=O)[C@@]2(C)[C@H]([C@H](OC(=O)c3ccccc3)[C@]3(O)C[C@H](OC(=O)[C@H](O)[C@@H](NC(=O)c4ccccc4)c4ccccc4)C(C)=C1C3(C)C)[C@]1(OC(C)=O)CO[C@@H]1C[C@@H]2O [paclitaxel] | very high | 100 | > 10000 | significantly increased the sensitivity | induced tubulin polymerization | –
COc1cccc2c1C(=O)c1c(O)c3c(c(O)c1C2=O)C[C@@](O)(C(=O)CO)C[C@@H]3O[C@H]1C[C@H](N)[C@@H](O)[C@H](C)O1 [epirubicin] | – | – | – | did not result in increased sensitivity | – | slightly decreased

Source: patent publication US20050266420A1, “Multigene predictors of response to chemotherapy” (Board of Regents, The University of Texas System, priority 2004, published 2005)
